Each structure is given as a SMILES string.

Common to all, as to test: Kinase selectivity, scanMAX Kinase assay panel (DiscoverX), % control at 1 uM
What all share (assay type): binding

Experiment [1] addresses T1, scanMAX Kinase assay panel (Homo sapiens, UniProt Q96BR1).
T1 construct: purchased DiscoverX
T1 sequence (Q96BR1 1-496): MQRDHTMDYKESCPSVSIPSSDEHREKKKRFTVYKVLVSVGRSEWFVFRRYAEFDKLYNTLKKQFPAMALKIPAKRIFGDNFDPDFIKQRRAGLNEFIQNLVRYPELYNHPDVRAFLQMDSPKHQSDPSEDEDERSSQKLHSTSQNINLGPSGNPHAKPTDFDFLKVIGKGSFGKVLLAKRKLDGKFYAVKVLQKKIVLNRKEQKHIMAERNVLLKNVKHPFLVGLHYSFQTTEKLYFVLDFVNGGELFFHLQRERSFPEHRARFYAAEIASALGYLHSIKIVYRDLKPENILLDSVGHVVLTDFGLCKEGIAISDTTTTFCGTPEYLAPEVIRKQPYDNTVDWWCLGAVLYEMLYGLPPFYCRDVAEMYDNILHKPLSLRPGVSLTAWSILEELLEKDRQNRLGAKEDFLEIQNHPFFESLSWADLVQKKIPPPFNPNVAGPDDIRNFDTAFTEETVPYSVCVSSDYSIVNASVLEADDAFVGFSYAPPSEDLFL
As to conditions: SGK3; 1 uM; read-out: Percent Control (%). The essentials:
(§1)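 Each kinase was first exposed to the test compound at 1 uM in DMSO. Signal was then normalised to positive and negative controls to give % control. Finally, any enzyme showing <35% control was judged inhibited.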

For experiment [2], the target named is T2, scanMAX Kinase assay panel (Homo sapiens, UniProt Q9NQU5).
T2 construct: purchased DiscoverX
The following applies: PAK6; 1 uM; read-out: Percent Control (%). Summed up:
as §1

The target of experiment [3] is T3, scanMAX Kinase assay panel (Homo sapiens, UniProt Q9NYL2).
T3 construct: purchased DiscoverX
As to conditions: ZAK; 1 uM; read-out: Percent Control (%). The essentials:
as §1

Experiment [4] concerns the target T4, scanMAX Kinase assay panel (Homo sapiens, UniProt P22607, G697C).
T4 construct: purchased DiscoverX
As to conditions: FGFR3 (G697C); 1 uM; read-out: Percent Control (%). The essentials:
as §1

Experiment [5] concerns the target T5, scanMAX Kinase assay panel (Homo sapiens, UniProt P53355).
T5 construct: purchased DiscoverX
As to conditions: DAPK1; 1 uM; read-out: Percent Control (%). Summed up: as §1

Experiment [6] deals with T6, scanMAX Kinase assay panel (Homo sapiens, UniProt P36888, D835Y).
T6 construct: purchased DiscoverX
T6 sequence (P36888 27-993 D835Y): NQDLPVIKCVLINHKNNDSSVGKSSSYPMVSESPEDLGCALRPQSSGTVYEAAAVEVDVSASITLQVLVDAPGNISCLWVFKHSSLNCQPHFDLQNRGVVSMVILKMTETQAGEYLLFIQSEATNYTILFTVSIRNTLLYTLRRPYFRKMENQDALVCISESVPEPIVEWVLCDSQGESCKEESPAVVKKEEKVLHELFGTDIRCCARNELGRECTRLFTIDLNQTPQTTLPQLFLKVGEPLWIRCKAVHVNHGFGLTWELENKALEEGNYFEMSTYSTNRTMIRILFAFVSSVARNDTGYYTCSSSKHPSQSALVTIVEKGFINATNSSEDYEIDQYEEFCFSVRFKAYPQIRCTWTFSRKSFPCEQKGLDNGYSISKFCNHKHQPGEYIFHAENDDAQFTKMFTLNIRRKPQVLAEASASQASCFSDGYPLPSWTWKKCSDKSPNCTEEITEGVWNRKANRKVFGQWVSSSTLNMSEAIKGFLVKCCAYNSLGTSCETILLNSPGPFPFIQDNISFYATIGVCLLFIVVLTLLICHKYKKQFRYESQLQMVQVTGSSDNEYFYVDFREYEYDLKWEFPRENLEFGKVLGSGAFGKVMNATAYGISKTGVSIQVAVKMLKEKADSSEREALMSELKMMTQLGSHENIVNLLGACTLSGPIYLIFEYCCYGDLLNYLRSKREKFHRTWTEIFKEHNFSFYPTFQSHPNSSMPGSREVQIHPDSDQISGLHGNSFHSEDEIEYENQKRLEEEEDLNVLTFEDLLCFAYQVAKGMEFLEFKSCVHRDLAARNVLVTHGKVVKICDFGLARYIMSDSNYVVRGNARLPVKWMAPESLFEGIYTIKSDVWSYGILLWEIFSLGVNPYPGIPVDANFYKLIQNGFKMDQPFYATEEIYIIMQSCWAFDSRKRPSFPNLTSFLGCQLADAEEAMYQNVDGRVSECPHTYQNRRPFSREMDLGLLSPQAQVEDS
As to conditions: FLT3 (D835Y); 1 uM; read-out: Percent Control (%). Summed up: as §1

The target of experiment [7] is T7, scanMAX Kinase assay panel (Homo sapiens, UniProt Q13557).
T7 construct: purchased DiscoverX
As to conditions: CAMK2D; 1 uM; read-out: Percent Control (%). Summed up: as §1

The target of experiment [8] is T8, scanMAX Kinase assay panel (Homo sapiens, UniProt P53779).
T8 construct: purchased DiscoverX
As to conditions: JNK3; 1 uM; read-out: Percent Control (%). Summed up:
as §1

Experiment [9] addresses T9, scanMAX Kinase assay panel (Homo sapiens, UniProt P42336, H1047L).
T9 construct: purchased DiscoverX
As to conditions: PIK3CA (H1047L); 1 uM; read-out: Percent Control (%). Summed up: as §1

T9 sequence (P42336 whole entry H1047L): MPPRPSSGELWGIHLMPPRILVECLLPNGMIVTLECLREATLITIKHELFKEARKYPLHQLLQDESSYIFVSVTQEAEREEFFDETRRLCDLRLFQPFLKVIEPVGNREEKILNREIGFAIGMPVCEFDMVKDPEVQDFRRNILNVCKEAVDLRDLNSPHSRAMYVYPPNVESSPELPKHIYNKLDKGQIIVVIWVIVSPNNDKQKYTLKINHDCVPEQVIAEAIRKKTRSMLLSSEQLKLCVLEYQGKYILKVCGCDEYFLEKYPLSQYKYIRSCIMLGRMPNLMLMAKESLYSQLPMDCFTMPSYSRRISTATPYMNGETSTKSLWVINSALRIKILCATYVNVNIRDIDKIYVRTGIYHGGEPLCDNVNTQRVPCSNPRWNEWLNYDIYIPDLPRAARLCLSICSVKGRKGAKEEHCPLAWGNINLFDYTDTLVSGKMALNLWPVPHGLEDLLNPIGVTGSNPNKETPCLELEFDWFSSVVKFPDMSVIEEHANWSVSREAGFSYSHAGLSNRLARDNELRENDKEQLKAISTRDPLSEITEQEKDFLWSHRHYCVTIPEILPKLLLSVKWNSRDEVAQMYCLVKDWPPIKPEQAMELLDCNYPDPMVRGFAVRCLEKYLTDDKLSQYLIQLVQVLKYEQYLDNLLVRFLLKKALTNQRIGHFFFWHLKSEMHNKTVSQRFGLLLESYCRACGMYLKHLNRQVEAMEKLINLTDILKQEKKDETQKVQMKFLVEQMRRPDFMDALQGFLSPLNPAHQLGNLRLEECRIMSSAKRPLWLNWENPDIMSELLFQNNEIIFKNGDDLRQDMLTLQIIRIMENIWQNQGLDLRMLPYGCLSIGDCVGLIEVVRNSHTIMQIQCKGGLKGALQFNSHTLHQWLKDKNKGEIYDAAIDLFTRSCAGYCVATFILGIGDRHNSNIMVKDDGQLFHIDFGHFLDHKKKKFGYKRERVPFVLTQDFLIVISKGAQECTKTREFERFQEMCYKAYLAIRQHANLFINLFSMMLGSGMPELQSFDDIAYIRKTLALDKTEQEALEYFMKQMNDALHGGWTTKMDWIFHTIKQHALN
T5 sequence (P53355 whole entry): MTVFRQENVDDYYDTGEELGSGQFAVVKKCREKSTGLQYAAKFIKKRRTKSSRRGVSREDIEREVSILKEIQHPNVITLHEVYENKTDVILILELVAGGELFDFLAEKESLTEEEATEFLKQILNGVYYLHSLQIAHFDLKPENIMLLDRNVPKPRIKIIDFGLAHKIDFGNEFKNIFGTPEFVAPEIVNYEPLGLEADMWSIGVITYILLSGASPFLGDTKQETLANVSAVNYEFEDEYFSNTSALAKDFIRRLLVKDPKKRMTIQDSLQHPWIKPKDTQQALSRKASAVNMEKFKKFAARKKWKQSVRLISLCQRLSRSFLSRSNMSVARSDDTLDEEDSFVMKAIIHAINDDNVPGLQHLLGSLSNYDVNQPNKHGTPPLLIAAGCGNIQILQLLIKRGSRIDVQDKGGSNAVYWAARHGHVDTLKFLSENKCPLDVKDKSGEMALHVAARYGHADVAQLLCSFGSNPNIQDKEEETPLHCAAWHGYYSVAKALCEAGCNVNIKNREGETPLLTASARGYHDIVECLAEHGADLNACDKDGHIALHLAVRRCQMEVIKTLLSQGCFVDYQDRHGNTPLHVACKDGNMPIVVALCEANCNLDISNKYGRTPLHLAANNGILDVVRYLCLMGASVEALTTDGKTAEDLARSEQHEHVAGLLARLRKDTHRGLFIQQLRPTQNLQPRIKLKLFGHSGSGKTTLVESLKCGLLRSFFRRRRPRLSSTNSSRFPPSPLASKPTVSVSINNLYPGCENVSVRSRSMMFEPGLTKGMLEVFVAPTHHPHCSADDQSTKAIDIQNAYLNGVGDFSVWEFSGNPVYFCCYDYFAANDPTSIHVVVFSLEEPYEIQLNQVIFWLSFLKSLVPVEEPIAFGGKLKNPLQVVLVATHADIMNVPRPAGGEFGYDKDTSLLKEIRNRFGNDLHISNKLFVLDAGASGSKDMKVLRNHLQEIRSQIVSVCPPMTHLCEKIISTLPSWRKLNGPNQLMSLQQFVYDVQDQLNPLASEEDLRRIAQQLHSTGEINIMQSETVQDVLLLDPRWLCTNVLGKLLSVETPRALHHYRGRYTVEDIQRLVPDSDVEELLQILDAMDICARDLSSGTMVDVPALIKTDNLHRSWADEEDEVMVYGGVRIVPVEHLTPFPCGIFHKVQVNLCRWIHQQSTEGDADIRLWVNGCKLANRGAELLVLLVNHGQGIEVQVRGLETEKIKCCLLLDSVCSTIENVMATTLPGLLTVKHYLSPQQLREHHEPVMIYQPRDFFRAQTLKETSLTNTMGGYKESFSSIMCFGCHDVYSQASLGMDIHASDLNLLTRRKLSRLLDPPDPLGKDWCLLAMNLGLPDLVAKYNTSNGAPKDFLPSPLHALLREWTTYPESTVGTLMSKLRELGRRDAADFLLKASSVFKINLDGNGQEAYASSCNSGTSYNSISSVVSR
T4 sequence (P22607 23-806 G697C): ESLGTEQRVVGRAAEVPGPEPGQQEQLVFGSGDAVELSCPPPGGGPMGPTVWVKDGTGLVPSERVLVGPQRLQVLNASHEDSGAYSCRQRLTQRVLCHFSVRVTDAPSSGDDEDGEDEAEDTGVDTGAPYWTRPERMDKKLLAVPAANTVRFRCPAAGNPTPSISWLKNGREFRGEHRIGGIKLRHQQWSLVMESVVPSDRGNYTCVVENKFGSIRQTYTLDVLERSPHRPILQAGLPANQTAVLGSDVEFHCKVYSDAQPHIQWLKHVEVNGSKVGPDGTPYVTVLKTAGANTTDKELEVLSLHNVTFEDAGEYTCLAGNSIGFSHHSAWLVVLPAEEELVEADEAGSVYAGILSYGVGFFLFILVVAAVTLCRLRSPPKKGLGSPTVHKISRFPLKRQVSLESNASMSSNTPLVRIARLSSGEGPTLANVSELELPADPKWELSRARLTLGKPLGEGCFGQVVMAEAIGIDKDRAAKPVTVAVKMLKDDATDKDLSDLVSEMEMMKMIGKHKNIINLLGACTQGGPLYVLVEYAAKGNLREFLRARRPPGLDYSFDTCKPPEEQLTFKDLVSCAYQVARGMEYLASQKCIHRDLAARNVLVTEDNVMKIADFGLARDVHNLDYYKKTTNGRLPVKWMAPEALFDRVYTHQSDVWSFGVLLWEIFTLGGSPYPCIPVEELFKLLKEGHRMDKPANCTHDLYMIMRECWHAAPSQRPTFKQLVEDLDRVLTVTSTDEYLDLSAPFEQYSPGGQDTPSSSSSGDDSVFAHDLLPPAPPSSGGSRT
T7 sequence (Q13557 whole entry): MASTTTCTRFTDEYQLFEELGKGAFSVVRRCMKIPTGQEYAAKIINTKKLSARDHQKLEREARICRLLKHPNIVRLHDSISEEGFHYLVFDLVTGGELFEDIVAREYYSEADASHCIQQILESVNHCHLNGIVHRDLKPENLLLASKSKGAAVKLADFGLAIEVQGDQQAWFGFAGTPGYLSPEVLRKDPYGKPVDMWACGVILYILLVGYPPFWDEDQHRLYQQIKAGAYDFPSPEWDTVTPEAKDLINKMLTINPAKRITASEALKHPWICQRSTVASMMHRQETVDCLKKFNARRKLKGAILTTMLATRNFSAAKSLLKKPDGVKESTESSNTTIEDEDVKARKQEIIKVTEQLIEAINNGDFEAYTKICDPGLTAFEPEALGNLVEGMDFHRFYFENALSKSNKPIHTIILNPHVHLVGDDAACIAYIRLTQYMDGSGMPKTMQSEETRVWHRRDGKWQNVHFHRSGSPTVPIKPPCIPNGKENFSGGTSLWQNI
T2 sequence (Q9NQU5 whole entry): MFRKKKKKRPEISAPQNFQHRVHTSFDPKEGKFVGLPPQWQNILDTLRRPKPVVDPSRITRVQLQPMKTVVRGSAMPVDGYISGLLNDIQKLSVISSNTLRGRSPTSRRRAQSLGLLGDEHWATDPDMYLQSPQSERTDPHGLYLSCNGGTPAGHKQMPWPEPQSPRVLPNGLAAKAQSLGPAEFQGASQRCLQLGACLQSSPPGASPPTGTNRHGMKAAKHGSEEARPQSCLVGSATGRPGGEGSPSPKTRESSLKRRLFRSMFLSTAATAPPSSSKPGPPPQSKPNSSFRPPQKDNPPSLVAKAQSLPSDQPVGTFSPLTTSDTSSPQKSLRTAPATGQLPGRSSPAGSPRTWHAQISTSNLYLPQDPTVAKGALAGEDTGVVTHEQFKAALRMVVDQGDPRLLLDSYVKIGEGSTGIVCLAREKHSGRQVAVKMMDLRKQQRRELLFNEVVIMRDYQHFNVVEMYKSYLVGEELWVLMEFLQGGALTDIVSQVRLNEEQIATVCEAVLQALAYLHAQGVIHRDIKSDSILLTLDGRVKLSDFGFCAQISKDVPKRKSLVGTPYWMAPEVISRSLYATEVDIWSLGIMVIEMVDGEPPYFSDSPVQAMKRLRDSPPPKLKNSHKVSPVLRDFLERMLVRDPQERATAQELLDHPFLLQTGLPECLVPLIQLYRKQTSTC
T8 sequence (P53779 whole entry): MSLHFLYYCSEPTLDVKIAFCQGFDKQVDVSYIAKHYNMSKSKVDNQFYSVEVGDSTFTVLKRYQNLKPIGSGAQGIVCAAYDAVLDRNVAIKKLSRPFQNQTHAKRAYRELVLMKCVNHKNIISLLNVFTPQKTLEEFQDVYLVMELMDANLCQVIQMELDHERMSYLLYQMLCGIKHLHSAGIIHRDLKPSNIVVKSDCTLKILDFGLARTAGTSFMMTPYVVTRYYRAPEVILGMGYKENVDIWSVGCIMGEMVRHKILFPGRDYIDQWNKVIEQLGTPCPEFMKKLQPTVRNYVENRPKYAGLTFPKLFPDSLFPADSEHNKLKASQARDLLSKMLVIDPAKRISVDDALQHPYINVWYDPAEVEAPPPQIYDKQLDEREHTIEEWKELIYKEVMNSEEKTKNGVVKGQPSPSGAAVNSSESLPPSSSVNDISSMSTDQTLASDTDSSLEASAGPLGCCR

As for `Cc1ccc(C(=O)Nc2ccc(CN3CCN(C)CC3)c(C(F)(F)F)c2)cc1C#Cc1cnc2c(Nc3cnn(C)c3)cccn12` [Example 1, 4-methyl-3-((8-((1-methyl-1H-pyrazol-4-yl)amino)imidazo[1,2-a]pyridin-3-yl)ethynyl)-N-(4-((4-methylpiperazin-1-yl)methyl)-3-(trifluoromethyl)phenyl)benzamide], the remaining binding at 1 µM in experiment [1] is 97%; in [2], 66%; in experiment [3], 1%; in experiment [4] it was 3%; in experiment [5] it was 87%; in [6] it was 5%. In addition, the values for the remaining binding at 1 µM in [7], in experiment [8] and in experiment [9] were 82%, 19% and 100%, respectively.

On to `Cc1cn(-c2cc(NC(=O)c3ccc(C)c(C#Cc4cnc5c(Nc6cnn(C)c6)cccn45)c3)cc(C(F)(F)F)c2)cn1` [Example 12, 4-methyl-N-(3-(4-methyl-1H-imidazol-1-yl)-5-(trifluoromethyl)phenyl)-3-((8-((1-methyl-1H-pyrazol-4-yl)amino)imidazo[1,2-a]pyridin-3-yl)ethynyl)benzamide], for which the remaining binding at 1 µM in experiment [1] came to 100%; in [2], 84%; in experiment [3], 1%; in experiment [4] it was 34%; in experiment [5], 80%; in experiment [6] it was 14%. The remaining binding at 1 µM is 78% in [7], 98% in experiment [8] and 100% in experiment [9].

Consider `Cc1ccc(NC(=O)C2(C(=O)Nc3ccc(F)cc3)CC2)cc1C#Cc1cnc2c(Nc3cnn(C(C)C)c3)cccn12` [Example 78], for which the remaining binding at 1 µM in experiment [1] worked out at 78%; in experiment [2], 97%; in experiment [3], 19%; in experiment [4] it was 96%; in experiment [5], 98%; in experiment [6], 79%. The remaining binding at 1 µM in [7] was 100%; in experiment [8], 100%; in experiment [9], 92%.

(Values after patent publication US10870647B2, “Imidazopyridine derivative, method for preparing same, and pharmaceutical composition containing same as active ingredient for preventing or treating cancer” (DAEGU-GYEONGBUK MEDICAL INNOVATION FOUNDATION, priority 2016, dated 2020).)
